Laboratory results from patent US20100016366A1, “Novel Compounds Active as Muscarinic Receptor Antagonists” (priority 2008, published 2010).

How the values were obtained:
[1] = biological target: T1, human muscarinic M3 receptor (Homo sapiens, UniProt P20309); experiment: Cell based potency assessment, hM3 β-lactamase assay (CHO cell β-lactamase); conditions: CHO cells recombinantly expressing human M3, NFAT-β-lactamase reporter; inhibition of 80 nM carbamyl choline signal, 4 h; IC50 converted by Cheng-Prusoff
T1 construct: expressed in transfected cells; host or cells: CHO (CHO-K1) cells
T1 sequence (P20309 whole entry): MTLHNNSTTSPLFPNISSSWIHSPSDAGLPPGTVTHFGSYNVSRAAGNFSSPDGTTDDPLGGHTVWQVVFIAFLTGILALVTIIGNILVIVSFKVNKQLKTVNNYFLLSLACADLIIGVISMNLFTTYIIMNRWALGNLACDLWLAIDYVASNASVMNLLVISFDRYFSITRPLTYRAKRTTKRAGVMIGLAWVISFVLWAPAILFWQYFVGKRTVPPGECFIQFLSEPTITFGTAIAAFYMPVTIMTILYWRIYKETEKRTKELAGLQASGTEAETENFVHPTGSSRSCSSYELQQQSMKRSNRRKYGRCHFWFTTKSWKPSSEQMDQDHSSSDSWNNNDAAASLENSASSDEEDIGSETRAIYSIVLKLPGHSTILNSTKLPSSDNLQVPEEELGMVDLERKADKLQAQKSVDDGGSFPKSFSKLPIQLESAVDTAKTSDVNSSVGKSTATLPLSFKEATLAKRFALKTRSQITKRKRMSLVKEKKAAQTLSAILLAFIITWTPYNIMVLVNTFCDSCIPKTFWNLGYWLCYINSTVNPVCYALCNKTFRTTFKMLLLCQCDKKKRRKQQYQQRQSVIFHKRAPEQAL
Description: Cell BASED POTENCY ASSESSMENT at the Human Recombinant M3 Muscarinic Receptor
M3 potency was determined in CHO-K1 cells transfected with the NFAT-Betalactamase gene. CHO (Chinese Hamster Ovary) cells recombinantly expressing the human muscarinic M3 receptor were transfected with the NFAT_β-Lac_Zeo plasmid. Cells were grown in DMEM with Glutamax-1, supplemented with 25 mM HEPES (Life Technologies 32430-027), containing 10% FCS (Foetal Calf Serum; Sigma F-7524), […] Sodium pyruvate (Sigma S-8636), NEAA (non-Essential Amino Acids; Invitrogen 11140-035) and 200 μg/ml Zeocin (Invitrogen R250-01).
hM3 β-Lactamase Assay Protocol
Cells were harvested for assay when they reached 80-90% confluency using enzyme free cell Dissociation Solution (Life technologies 13151-014) incubated with the cells for 5 min at 37° C. in an atmosphere containing 5% CO2. Detached cells were collected in warmed growth media and centrifuged at 2000 rpm for 10 min, washed in PBS (Phosphate Buffered Saline; Life Technologies 14190-094) and centrifuged again as just described. The cells were re-suspended at 2×10^5 cells/ml in growth medium (composition as described above). 20 μl of this cell suspension was added to each well of a 384 well black clear bottomed plate (Greiner Bio One 781091-PFI). The assay buffer used was PBS supplemented with 0.05% Pluronic F-127 (Sigma 9003-11-6) and 2.5% DMSO. Muscarinic M3 receptor signalling was stimulated using 80 nM carbamyl choline (Aldrich N240-9) incubated with the cells for 4 h at 37° C./5% CO2 and monitored at the end of the incubation period using a Tecan SpectraFluor+plate reader (λ−excitation 405 nm, emission 450 nm and 503 nm). M3 receptor antagonists under test were added to the assay at the beginning of the 4 h incubation period and compound activity measured as the concentration dependent inhibition of the carbamyl choline induced signal. Inhibition curves were plotted and IC50 values generated using a 4-parameter sigmoid fit and converted to Ki values using the Cheng-Prusoff correction and the KD value for carbamyl choline in the assay.

[2] = biological target: T1, human muscarinic M3 receptor; experiment: hM3 competition binding assay (3H-NMS, CHO cell membranes); conditions: CHO cell membranes expressing human M3; 3H-NMS at 5×KD, 24 hr at RT; IC50 corrected by Cheng-Prussoff
Description: Binding Affinity Assessment at the Human Recombinant M3 Muscarinic Receptor
Cell Pellets from CHO (Chinese Hamster Ovary) cells recombinantly expressing the human muscarinic M3 receptor were homogenised in 20 mM HEPES (pH7.4) and centrifuged at 48000×g for 20 min at 4° C. The pellet was re-suspended in buffer and the homogenisation and centrifugation steps repeated. The resulting pellet was re-suspended in 1 ml buffer per 1 ml original packed cell volume and the homogenisation step repeated. Protein estimation was carried out on the suspension and 1 ml aliquots of ˜1 mg/ml frozen at −80° C.
hM3 Competition Binding Assay Protocol
Membranes (5 µg/well) were incubated with ^3H-NMS (at a concentration 5×KD) plus/minus test compound for 24 hr at RT (room temperature) in a 1 ml polystyrene 96-well deep well block. The final assay volume was 200 µl, comprising of: 20 µl plus/minus test compound; 20 µl ^3H-NMS (Perkin Elmer NEN 636) and 160 µl membrane solution. Total Binding was defined with 0.1% DMSO; Non-Specific Binding was defined with 1 µM Atropine. Assay buffer was 20 mM Hepes (pH 7.4).
Once all assay components were added, plates were covered and incubated at room temperature for 24 hrs with shaking. The assay was terminated by rapidly filtering through GF/B Unifilter plates pre-soaked with 0.5% polyethylenimine, using a Packard filtermate harvester, the filter plate was then washed with 3×1 ml 4° C. assay buffer. The filter plates were dried at 45° C. for 1 hour. The bottoms of the filter plates were sealed and 50 µl/well of Microscint ‘0’ added, the top of the plates were sealed with a Topseal. Following 90 mins, the plates were read on an NXT Topcount (1 minute read time per well).
The resulting data was expressed as a percentage of the specific binding (Specific binding=Total binding−Non-Specific Binding). % specific binding versus test compound concentration was plotted to determine an IC50 from a sigmoid curve using an in-house data analysis programme. IC50 values corrected to Ki values by applying the Cheng-Prussoff equation: […]
where IC50 is the concentration of unlabelled drug which inhibits by 50% the specific radioligand binding. [L] is the free radioligand concentrations and KD and Ki are the equilibrium dissociation constants of the radioligand and unlabelled drug respectively.

Compound | Ki [1] [nM] | Ki [2] [nM]
O=C(Nc1ccccc1-c1ccccc1)OC1CCN(CCCCCCCCCNC(=O)c2ccc(Cl)cc2O)CC1 [Example 14, Biphenyl-2-yl-carbamic acid 1-[9-(4-chloro-2-hydroxy-benzoylamino)-nonyl]-piperidin-4-yl ester] | 13.9 | –
CN(CCCCCCCCCN1CCC(OC(=O)Nc2ccccc2-c2ccccc2)CC1)Cc1cc(Cl)cc(Cl)c1O [Example 52, Biphenyl-2-yl-carbamic acid 1-{9-[(3,5-dichloro-2-hydroxy-benzyl)-methyl-amino]-nonyl}-piperidin-4-yl ester] | – | 0.637
CN(CCCCCCCCCN1CCC(OC(=O)Nc2ccccc2-c2ccccc2)CC1)Cc1ccc(Cl)c(O)c1Cl [Example 54, Biphenyl-2-yl-carbamic acid 1-{9-[(2,4-dichloro-3-hydroxy-benzyl)-methyl-amino]-nonyl}-piperidin-4-yl ester] | – | 0.233
CN(CCCCCCCCCN1CCC(OC(=O)Nc2ccccc2-c2ccccc2)CC1)Cc1cc(F)cc(F)c1O [Example 55, Biphenyl-2-yl-carbamic acid 1-{9-[(3,5-difluoro-2-hydroxy-benzyl)-methyl-amino]-nonyl}-piperidin-4-yl ester] | – | 0.417
CN(CCCCCCCCCN1CCC(OC(=O)Nc2ccccc2-c2ccccc2)CC1)C(=O)c1cc(Cl)cc(Cl)c1O [Example 56, Biphenyl-2-yl-carbamic acid 1-{9-[(3,5-dichloro-2-hydroxy-benzoyl)-methyl-amino]-nonyl}-piperidin-4-yl ester] | – | 11.3
CN(CCCCCCCCCN1CCC(OC(=O)Nc2ccccc2-c2ccccc2)CC1)C(=O)c1cccc(Cl)c1O [Example 57, Biphenyl-2-yl-carbamic acid 1-{9-[(3-chloro-2-hydroxy-benzoyl)-methyl-amino]-nonyl}-piperidin-4-yl ester] | – | 0.87
CN(CCCCCCCCCN1CCC(OC(=O)Nc2ccccc2-c2ccccc2)CC1)C(=O)c1ccc(F)c(F)c1O [Example 58, Biphenyl-2-yl-carbamic acid 1-{9-[(3,4-difluoro-2-hydroxy-benzoyl)-methyl-amino]-nonyl}-piperidin-4-yl ester] | – | 1.83
CN(CCCCCCCCCN1CCC(OC(=O)Nc2ccccc2-c2ccccc2)CC1)C(=O)c1cccc(F)c1O [Example 59, Biphenyl-2-yl-carbamic acid 1-{9-[(3-fluoro-2-hydroxy-benzoyl)-methyl-amino]-nonyl}-piperidin-4-yl ester] | – | 1.27
CN(CCCCCCCCCN1CCC(OC(=O)Nc2ccccc2-c2ccccc2)CC1)C(=O)c1ccc(Cl)cc1O [Example 60, Biphenyl-2-yl-carbamic acid 1-{9-[(4-chloro-2-hydroxy-benzoyl)-methyl-amino]-nonyl}-piperidin-4-yl ester] | – | 3.61
CN(CCCCCCCCCN1CCC(OC(=O)Nc2ccccc2-c2ccccc2)CC1)C(=O)c1ccc(F)cc1O [Example 61, Biphenyl-2-yl-carbamic acid 1-{9-[(4-fluoro-2-hydroxy-benzoyl)-methyl-amino]-nonyl}-piperidin-4-yl ester] | – | 0.778
CN(CCCCCCCCCN1CCC(OC(=O)Nc2ccccc2-c2ccccc2)CC1)C(=O)c1ccc(Cl)c(O)c1 [Example 62, Biphenyl-2-yl-carbamic acid 1-{9-[(4-chloro-3-hydroxy-benzoyl)-methyl-amino]-nonyl}-piperidin-4-yl ester] | – | 1.21
CN(CCCCCCCCCN1CCC(OC(=O)Nc2ccccc2-c2ccccc2)CC1)C(=O)c1ccc(O)cc1F [Example 63, Biphenyl-2-yl-carbamic acid 1-{9-[(2-fluoro-4-hydroxy-benzoyl)-methyl-amino]-nonyl}-piperidin-4-yl ester] | – | 1.12
CN(CCCCCCCCCN1CCC(OC(=O)Nc2ccccc2-c2ccccc2)CC1)C(=O)c1ccc(O)c(F)c1F [Example 64, Biphenyl-2-yl-carbamic acid 1-{9-[(2,3-difluoro-4-hydroxy-benzoyl)-methyl-amino]-nonyl}-piperidin-4-yl ester] | – | 2
CN(CCCCCCCCCN1CCC(OC(=O)Nc2ccccc2-c2ccccc2)CC1)C(=O)Cc1cccc(O)c1 [Example 66, Biphenyl-2-yl-carbamic acid 1-(9-{[2-(3-hydroxy-phenyl)-acetyl]-methyl-amino}-nonyl)-piperidin-4-yl ester] | – | 0.292
CN(CCCCCCCCCN1CCC(OC(=O)Nc2ccccc2-c2ccccc2)CC1)C(=O)c1cc(F)ccc1O [Example 67, Biphenyl-2-yl-carbamic acid 1-{9-[(5-fluoro-2-hydroxy-benzoyl)-methyl-amino]-nonyl}-piperidin-4-yl ester] | – | 0.828
CN(CCCCCCCCCN1CCC(OC(=O)Nc2ccccc2-c2ccccc2)CC1)C(=O)c1ccc(O)c(F)c1 [Example 69, Biphenyl-2-yl-carbamic acid 1-{9-[(3-fluoro-4-hydroxy-benzoyl)-methyl-amino]-nonyl}-piperidin-4-yl ester] | – | 0.615

Continued, values first:

Ki [1] [nM] | Ki [2] [nM] | Compound
8.81 | – | O=C(Nc1ccccc1-c1ccccc1)OC1CCN(CCCCCCCCCNC(=O)c2cc(F)ccc2O)CC1 [Example 9, Biphenyl-2-yl-carbamic acid 1-[9-(5-fluoro-2-hydroxy-benzoylamino)-nonyl]-piperidin-4-yl ester]
7.32 | – | O=C(Nc1ccccc1-c1ccccc1)OC1CCN(CCCCCCCCCNC(=O)c2ccc(F)c(F)c2O)CC1 [Example 12, Biphenyl-2-yl-carbamic acid 1-[9-(3,4-difluoro-2-hydroxy-benzoylamino)-nonyl]-piperidin-4-yl ester]
18 | – | O=C(Nc1ccccc1-c1ccccc1)OC1CCN(CCCCCCCCCNC(=O)c2cc(Cl)cc(Cl)c2O)CC1 [Example 13, Biphenyl-2-yl-carbamic acid 1-[9-(3,5-dichloro-2-hydroxy-benzoylamino)-nonyl]-piperidin-4-yl ester]
17 | – | O=C(Nc1ccccc1-c1ccccc1)OC1CCN(CCCCCCCCCNC(=O)c2cc(Cl)ccc2O)CC1 [Example 24, Biphenyl-2-yl-carbamic acid 1-[9-(2-hydroxy-5-chloro-benzoylamino)-nonyl]-piperidin-4-yl ester]
– | 0.345 | CN(CCCCCCCCCN1CCC(OC(=O)Nc2ccccc2-c2ccccc2)CC1)Cc1cc(F)c(O)c(F)c1 [Example 53, Biphenyl-2-yl-carbamic acid 1-{9-[(3,5-difluoro-4-hydroxy-benzyl)-methyl-amino]-nonyl}-piperidin-4-yl ester]
– | 0.628 | CN(CCCCCCCCCN1CCC(OC(=O)Nc2ccccc2-c2ccccc2)CC1)C(=O)c1ccc(O)cc1Cl [Example 65, Biphenyl-2-yl-carbamic acid 1-{9-[(2-chloro-4-hydroxy-benzoyl)-methyl-amino]-nonyl}-piperidin-4-yl ester]
– | 2.27 | CN(CCCCCCCCCN1CCC(OC(=O)Nc2ccccc2-c2ccccc2)CC1)C(=O)c1cc(Cl)ccc1O [Example 68, Biphenyl-2-yl-carbamic acid 1-{9-[(5-chloro-2-hydroxy-benzoyl)-methyl-amino]-nonyl}-piperidin-4-yl ester]
